Experimental data taken from patent US10766869B2, “Triazoles for the treatment of demyelinating dieases” (Vertex Pharmaceuticals Incorporated, priority 2015, dated 2020).
Read-outs that look alike come from different tables or passages of the source.

Tested on: primary rat mixed cortical cells
Assay: In vitro myelination assay (MBP positive myelin strands, fold myelin pixels above background)
Type: cell-based
Conditions: Rattus norvegicus; for fold induction at 1 µM: 1.0 μM compound; for fold induction at 10 µM: 10.0 μM compound
How it was run: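 P1 rat cortical cells (neurons, OPCs, oligodendrocytes, astrocytes, microglia) were cultured 14 days at 37 °C with compound, with half-medium changes containing 1× compound on days 6 and 10. Fixed cells were immunostained for MBP and imaged at 10×. Total MBP myelin pixels per well were expressed as fold above no-compound baseline at 1.0 μM and 10.0 μM.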

[1] = read-out: Fold myelin pixels above background relative to baseline of no added compound
[2] = relative to baseline of no added compound, read-out: Fold myelin pixels above background
[3] = relative to baseline of no added compound, read-out: Fold myelin pixels above background, 1.0 μM
[4] = relative to baseline of no added compound, read-out: Fold myelin pixels above background, 10.0 μM

| Compound | fold induction at 1 µM [1] | fold induction at 10 µM [1] | fold induction at 1 µM [2] | fold induction at 10 µM [2] | further results |
| --- | --- | --- | --- | --- | --- |
| Cc1cc(Nc2ncn(-c3cc(F)cc(F)c3)n2)cc(N2CC(CC#N)C2)c1 [Compound 921, 2-[1-[3-[[1-(3,5-difluorophenyl)-1,2,4-triazol-3-yl]amino]-5-methyl-phenyl]azetidin-3-yl]acetonitrile] | 10 to 100 | 1 to 10 | – | – | – |
| Cc1cc(Nc2ncn(-c3cccnc3)n2)c(F)c(N2CCN(C3COC3)CC2)c1 [Compound 1022, N-[2-fluoro-5-methyl-3-[4-(oxetan-3-yl)piperazin-1-yl]phenyl]-1-(3-pyridyl)-1,2,4-triazol-3-amine] | 1 to 10 | 10 to 100 | – | – | – |
| Fc1cc(Nc2ncn(-c3cc(F)cc(F)c3)n2)cc(NC2COC2)c1 [Compound 686, N3-[1-(3,5-difluorophenyl)-1,2,4-triazol-3-yl]-5-fluoro-N1-(oxetan-3-yl)benzene-1,3-diamine] | – | – | 1 to 10 | 1 to 10 | – |
| Cc1c(Nc2ncn(-c3cc(F)cc(F)c3)n2)cc(N2CCN(C3COC3)CC2)cc1OC(C)C [Compound 591, 1-(3,5-difluorophenyl)-N-[3-isopropoxy-2-methyl-5-[4-(oxetan-3-yl)piperazin-1-yl]phenyl]-1,2,4-triazol-3-amine] | – | – | 10 to 100 | 10 to 100 | – |
| Cc1cc(Nc2ncn(-c3ccc(F)cc3)n2)cc(N2CCN(C3(C)COC3)CC2)c1 [Compound 695, 1-(4-fluorophenyl)-N-[3-methyl-5-[4-(3-methyloxetan-3-yl)piperazin-1-yl]phenyl]-1,2,4-triazol-3-amine] | – | – | 1 to 10 | 1 to 10 | – |
| Cc1cc(Nc2ncn(-c3cc(F)cc(F)c3)n2)c(F)c(N2CC3(CNC3)C2)c1 [Compound 688, N-[3-(2,6-diazaspiro[3.3]heptan-2-yl)-2-fluoro-5-methyl-phenyl]-1-(3,5-difluorophenyl)-1,2,4-triazol-3-amine] | – | – | 1 to 10 | ≤ 1 | – |
| N#Cc1cc(N2CCN(C3COC3)CC2)cc(Nc2ncn(-c3cc(F)cc(F)c3)n2)n1 [Compound 707, 6-[[1-(3,5-difluorophenyl)-1,2,4-triazol-3-yl]amino]-4-[4-(oxetan-3-yl)piperazin-1-yl]pyridine-2-carbonitrile] | – | – | ≤ 1 | ≤ 1 | – |
| Cc1cc(Nc2ncn(-c3cc(F)cc(F)c3)n2)cc(N2CC(CN3CCOCC3)C2)c1 [Compound 866, 1-(3,5-difluorophenyl)-N-[3-methyl-5-[3-(morpholinomethyl)azetidin-1-yl]phenyl]-1,2,4-triazol-3-amine] | 1 to 10 | 10 to 100 | – | – | – |
| Cc1cc(Nc2ncn(-c3cnccn3)n2)cc([C@]2(C)CNC(=O)O2)c1 (single isomer, unassigned) [Compound 682] | – | – | 10 to 100 | 10 to 100 | – |
| Cc1cc(Nc2ncn(-c3cc(F)cc(F)c3)n2)cc(N2CCN(C)CC2)n1 [Compound 365, N-[1-(3,5-difluorophenyl)-1,2,4-triazol-3-yl]-2-methyl-6-(4-methylpiperazin-1-yl)pyridin-4-amine] | – | – | – | – | fold induction at 1 µM [3]: 10 to 100; fold induction at 10 µM [4]: ≤ 1 |
| Fc1cc(Nc2ncn(-c3cccc(F)c3)n2)cc(C2CCN(C3COC3)C2)c1 (stereo not drawn) [Compound 230, N-[3-fluoro-5-[1-(oxetan-3-yl)pyrrolidin-3-yl]phenyl]-1-(3-fluorophenyl)-1,2,4-triazol-3-amine] | – | – | – | – | fold induction at 1 µM [3]: 1000 to 10000; fold induction at 10 µM [4]: ≤ 1 |
| Cc1cc(Nc2ncn(-c3ccccc3)n2)cc(C2=CCN(C3COC3)C2)c1 [Compound 160, N-[3-methyl-5-[1-(oxetan-3-yl)-2,5-dihydropyrrol-3-yl]phenyl]-1-phenyl-1,2,4-triazol-3-amine] | – | – | – | – | fold induction at 1 µM [3]: 1000 to 10000; fold induction at 10 µM [4]: ≤ 1 |
| Cc1cc(N2CCN(C3COC3)CC2)cc(Nc2ncn(-c3cnccn3)n2)c1C [Compound 470, N-[2,3-dimethyl-5-[4-(oxetan-3-yl)piperazin-1-yl]phenyl]-1-pyrazin-2-yl-1,2,4-triazol-3-amine] | – | – | 10 to 100 | 100 to 1000 | – |
| Cc1cc(Nc2ncn(-c3ccc(F)c(F)c3)n2)cc(NC2CCN(C3COC3)CC2)c1 [Compound 278, N3-[1-(3,4-difluorophenyl)-1,2,4-triazol-3-yl]-5-methyl-N1-[1-(oxetan-3-yl)-4-piperidyl]benzene-1,3-diamine] | – | – | – | – | fold induction at 1 µM [3]: 100 to 1000; fold induction at 10 µM [4]: 1 to 10 |
| Cc1cc(Nc2ncn(-c3ccccc3)n2)cc(N2CCNC([C@](C)(O)C(C)C)C2)n1 (stereo partly drawn) [Compound 57, (2R)-3-methyl-2-[4-[6-methyl-4-[(1-phenyl-1,2,4-triazol-3-yl)amino]-2-pyridyl]piperazin-2-yl]butan-2-ol] | – | – | – | – | fold induction at 1 µM [3]: 100 to 1000; fold induction at 10 µM [4]: ≤ 1 |
| COc1cc(Nc2ncn(-c3ccc(Cl)c(F)c3)n2)nc(N2CCN(C3COC3)CC2)c1 [Compound 758, N-[1-(4-chloro-3-fluoro-phenyl)-1,2,4-triazol-3-yl]-4-methoxy-6-[4-(oxetan-3-yl)piperazin-1-yl]pyridin-2-amine] | – | – | 10 to 100 | 10 to 100 | – |
| [2H]C1([2H])NC([2H])([2H])C([2H])([2H])N(c2cc(C)cc(Nc3ncn(-c4cc(F)cc(F)c4)n3)c2)C1([2H])[2H] [Compound 916, 1-(3,5-difluorophenyl)-N-[3-methyl-5-(2,2,3,3,5,5,6,6-octadeuteriopiperazin-1-yl)phenyl]-1,2,4-triazol-3-amine] | 10 to 100 | ≤ 1 | – | – | – |
| c1ccc(-n2cnc(Nc3cc(C4CC4)nc(N4CCOCC4)c3)n2)cc1 [Compound 222, 2-cyclopropyl-6-morpholino-N-(1-phenyl-1,2,4-triazol-3-yl)pyridin-4-amine] | – | – | – | – | fold induction at 1 µM [3]: 100 to 1000; fold induction at 10 µM [4]: 1 to 10 |
| Cc1cc(Nc2ncn(-c3ccccc3)n2)cc(O[C@@H]2CCN(C3COC3)C2)c1 [Compound 391, N-[3-methyl-5-[(3R)-1-(oxetan-3-yl)pyrrolidin-3-yl]oxy-phenyl]-1-phenyl-1,2,4-triazol-3-amine] | – | – | 1000 to 10000 | 100 to 1000 | – |
| FC(F)c1cc(Nc2ncn(-c3ccccc3)n2)cc(N2CCN(C3COC3)CC2)c1 [Compound 26, N-[3-(difluoromethyl)-5-[4-(oxetan-3-yl)piperazin-1-yl]phenyl]-1-phenyl-1,2,4-triazol-3-amine] | – | – | – | – | fold induction at 1 µM [3]: 100 to 1000; fold induction at 10 µM [4]: ≤ 1 |
| CCN1CCN(C2CCN(c3cc(C)cc(Nc4ncn(-c5cc(F)cc(F)c5)n4)c3)CC2)CC1 [Compound 1025, 1-(3,5-difluorophenyl)-N-[3-[4-(4-ethylpiperazin-1-yl)-1-piperidyl]-5-methyl-phenyl]-1,2,4-triazol-3-amine] | 1 to 10 | 10 to 100 | – | – | – |
| Cc1cc(Nc2ncn(-c3cc(F)cc(F)c3)n2)cc(NC2CCN(C3CCOCC3)CC2)c1 [Compound 1013, N3-[1-(3,5-difluorophenyl)-1,2,4-triazol-3-yl]-5-methyl-N1-(1-tetrahydropyran-4-yl-4-piperidyl)benzene-1,3-diamine] | 10 to 100 | ≤ 1 | – | – | – |
| Cc1cc(Nc2ncn(-c3cnccn3)n2)cc(C2(C)CNC(=O)O2)c1 (stereo not drawn) [Compound 741, 5-methyl-5-[3-methyl-5-[(1-pyrazin-2-yl-1,2,4-triazol-3-yl)amino]phenyl]oxazolidin-2-one] | – | – | 10 to 100 | 1 to 10 | – |
| CCN1CCN(c2cc(C(F)(F)F)cc(Nc3ncn(-c4cc(F)cc(F)c4)n3)n2)CC1 [Compound 654, N-[1-(3,5-difluorophenyl)-1,2,4-triazol-3-yl]-6-(4-ethylpiperazin-1-yl)-4-(trifluoromethyl)pyridin-2-amine] | – | – | 1 to 10 | 1 to 10 | – |
| Cc1cc(Nc2ncn(-c3cc(F)cc(F)c3)n2)cc(N2CCCC3COCC32)c1 (stereo not drawn) [Compound 981, N-[3-(3,4,4a,5,7,7a-hexahydro-2H-furo[3,4-b]pyridin-1-yl)-5-methyl-phenyl]-1-(3,5-difluorophenyl)-1,2,4-triazol-3-amine] | 1 to 10 | 10 to 100 | – | – | – |
| COCC1CCN(c2cc(C)cc(Nc3ncn(-c4ccnc(F)c4)n3)c2)CC1 [Compound 122, 1-(2-fluoro-4-pyridyl)-N-[3-[4-(methoxymethyl)-1-piperidyl]-5-methyl-phenyl]-1,2,4-triazol-3-amine] | – | – | – | – | fold induction at 1 µM [3]: 10 to 100; fold induction at 10 µM [4]: 1000 to 10000 |
| Cc1cc(Nc2ncn(-c3cc(F)cc(F)c3)n2)cc(N2CCN(C3CCN(C)CC3)CC2)c1 [Compound 956, 1-(3,5-difluorophenyl)-N-[3-methyl-5-[4-(1-methyl-4-piperidyl)piperazin-1-yl]phenyl]-1,2,4-triazol-3-amine] | ≤ 1 | ≤ 1 | – | – | – |
| Cc1cc(Nc2ncn(-c3cc(F)cc(F)c3)n2)cc(N2CCN(CC3COCCO3)CC2)c1 (stereo not drawn) [Compound 949, 1-(3,5-difluorophenyl)-N-[3-[4-(1,4-dioxan-2-ylmethyl)piperazin-1-yl]-5-methyl-phenyl]-1,2,4-triazol-3-amine] | 10 to 100 | 10 to 100 | – | – | – |
| Cc1cc(Nc2ncn(-c3cc(F)cc(F)c3)n2)cc(N2CCC(CCCO)CC2)c1 [Compound 877, 3-[1-[3-[[1-(3,5-difluorophenyl)-1,2,4-triazol-3-yl]amino]-5-methyl-phenyl]-4-piperidyl]propan-1-ol] | 1 to 10 | 1 to 10 | – | – | – |
| Cc1cc(Nc2ncn(-c3cccc(C(F)(F)F)c3)n2)nc(NC2CCOC2)c1 (stereo not drawn) [Compound 600, 4-methyl-N2-tetrahydrofuran-3-yl-N6-[1-[3-(trifluoromethyl)phenyl]-1,2,4-triazol-3-yl]pyridine-2,6-diamine] | – | – | 1 to 10 | 10 to 100 | – |
